One experiment deals with U937 cells. Kind of experiment: Cellular assay in U937 cells: activity of RIPK1 inhibitors on TNFα/zVAD.fmk-induced cell death (necroptosis), CellTiter 96 AQueous (MTS) readout. Type of experiment: cell-based. The conditions noted are these: Homo sapiens, U-937. The gist of the method: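 Necroptosis was measured by viable-cell MTS reduction (4 h, absorbance 490 nm) after overnight (18–24 h) 37° C culture. Cell suspensions of U937 cells carried TNFα (100 ng/ml) plus zVAD.fmk (50 μM) before compound was added. A 10-point curve (10 μM–0.26 nM or 1 μM–0.07 nM) was run in duplicate, normalised to the control lacking TNFα/zVAD.fmk.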

For experiment [1], the target named is T1, hRIPK1 (aa 1-375) fusion protein (Homo sapiens, UniProt Q13546).
T1 construct: hRIPK1 (aa 1-375) fusion protein
T1 sequence (Q13546 1-375): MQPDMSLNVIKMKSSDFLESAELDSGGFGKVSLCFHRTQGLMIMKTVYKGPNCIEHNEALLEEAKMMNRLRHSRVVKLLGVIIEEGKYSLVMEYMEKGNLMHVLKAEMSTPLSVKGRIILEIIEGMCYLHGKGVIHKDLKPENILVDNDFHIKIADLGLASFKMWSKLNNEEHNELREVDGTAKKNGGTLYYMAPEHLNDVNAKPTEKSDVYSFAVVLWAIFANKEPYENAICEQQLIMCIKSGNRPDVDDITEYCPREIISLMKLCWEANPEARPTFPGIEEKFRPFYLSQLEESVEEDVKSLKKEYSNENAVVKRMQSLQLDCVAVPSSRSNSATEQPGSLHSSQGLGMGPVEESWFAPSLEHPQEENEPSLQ
Kind of experiment: ADP-Glo kinase assay: catalytic activity of RIPK1 (autophosphorylation, conversion of ATP to ADP). Type of experiment: biochemical. In outline: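 hRIPK1 (aa 1-375) fusion protein (3.6 μg/ml final) was preincubated 30 min at rt with compound (33300-1.69 nM, 1% DMSO), then 50 μM ATP was added for 240 min at rt. ADP from autophosphorylation was measured by ADP-Glo luminescence and curves fitted by nonlinear regression.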

24 compounds from patent US20260158009A1 (GENZYME CORPORATION, priority 2023, published 2026) can be followed below.

In general, IC50 refers to the concentration that inhibits the measured activity by half. As to `Cc1nc2c(C)cc(C[C@H]3CC[C@H](C(=O)N4OCC[C@H]4c4cnccn4)CC3)cn2n1` [compound 326, trans-[4-[(2,8-dimethyl-[1,2,4]triazolo[1,5-a]pyridin-6-yl)methyl]cyclohexyl]-[(3S)-3-pyrazin-2-ylisoxazolidin-2-yl]methanone], the IC50 in the experiment with U937 cells stood at 59 nM; in experiment [1] it was 51 nM.
For `Cc1ccc([C@@H]2CCON2C(=O)[C@H]2CC[C@H](Cn3nc(C)cc3C)CC2)cc1` [compound 117, trans-(4-((3,5-dimethyl-1H-pyrazol-1-yl)methyl)cyclohexyl)((S)-3-(p-tolyl)isoxazolidin-2-yl)methanone], in that order: 54 nM and 35 nM.
For `N#Cc1cc(F)cc([C@@H]2CCON2C(=O)[C@H]2CC[C@H](Cn3ccc4ncccc43)CC2)c1` [compound 14, trans-3-((S)-2-(4-((1H-pyrrolo[3,2-b]pyridin-1-yl)methyl)cyclohexane-1-carbonyl)isoxazolidin-3-yl)-5-fluorobenzonitrile], in that order: 3 nM and 50 nM.
Turning to `O=C1NCc2ccc(C[C@H]3CC[C@H](C(=O)N4OCC[C@H]4c4cncc(F)c4)CC3)cc21` [compound 155, trans-6-[[4-[(3S)-3-(5-fluoro-3-pyridyl)isoxazolidine-2-carbonyl]cyclohexyl]methyl]isoindolin-1-one], the figures for the IC50 (with U937 cells; in experiment [1]) were 19 nM and 15 nM, respectively.
For `Cc1ccc(C[C@H]2CC[C@H](C(=O)N3OCC[C@H]3c3cc(F)cc(F)c3)CC2)nn1` [compound 304, trans-[(3S)-3-(3,5-difluorophenyl)isoxazolidin-2-yl]-[4-[(6-methylpyridazin-3-yl)methyl]cyclohexyl]methanone], in that order: 33 nM and 23 nM.
For `Cn1cncc1C[C@H]1CC[C@H](C(=O)N2OCC[C@H]2c2cncc(C#N)c2)CC1` [compound 168, trans-5-[(3S)-2-[4-[(3-methylimidazol-4-yl)methyl]cyclohexanecarbonyl]isoxazolidin-3-yl]pyridine-3-carbonitrile], in that order: 653 nM and 829 nM.
As to `CC1(Oc2cnc3ccn(C[C@H]4CC[C@H](C(=O)N5OCC[C@H]5c5cc(F)cc(C#N)c5)CC4)c3c2)CC1` [compound 184, trans-3-fluoro-5-[(3S)-2-[4-[[6-(1-methylcyclopropoxy)pyrrolo[3,2-b]pyridin-1-yl]methyl]cyclohexanecarbonyl]isoxazolidin-3-yl]benzonitrile], the results for the IC50 (in the experiment on U937 cells; in experiment [1]) were 19 nM and 26 nM, respectively.
For `Cn1nccc1-c1cc(F)cc(C[C@H]2CC[C@H](C(=O)N3OCC[C@H]3c3cc(F)cc(C#N)c3)CC2)c1` [compound 214, trans-3-fluoro-5-[(3S)-2-[4-[[3-fluoro-5-(2-methylpyrazol-3-yl)phenyl]methyl]cyclohexanecarbonyl]isoxazolidin-3-yl]benzonitrile], in that order: 4 nM and 20 nM.
For `Cc1nnc2c(F)cc(C[C@H]3CC[C@H](C(=O)N4OCC[C@H]4c4cnccn4)CC3)cn12` [compound 359, trans-[4-[(8-fluoro-3-methyl-[1,2,4]triazolo[4,3-a]pyridin-6-yl)methyl]cyclohexyl]-[(3S)-3-pyrazin-2-yl-1,2-oxazolidin-2-yl]methanone], in that order: 451 nM and 104 nM.
As for `Cc1cc([C@@H]2CCON2C(=O)[C@H]2CC[C@H](Cn3cc4c(F)cc(C#N)cc4n3)CC2)co1` [compound 42, trans-4-fluoro-2-((4-((S)-3-(5-methylfuran-3-yl)isoxazolidine-2-carbonyl)cyclohexyl)methyl)-2H-indazole-6-carbonitrile], the 50% inhibitory concentration (IC50) with U937 cells worked out at 119 nM; in experiment [1], 39 nM.
For `N#Cc1cc(F)cc([C@@H]2CCON2C(=O)[C@H]2CC[C@H](Cn3ncc4ncc(C#N)cc43)CC2)c1` [compound 27, trans-1-((4-((S)-3-(3-cyano-5-fluorophenyl)isoxazolidine-2-carbonyl)cyclohexyl)methyl)-1H-pyrazolo[4,3-b]pyridine-6-carbonitrile], in that order: 2 nM and 6 nM.
For `Cn1cc(C[C@H]2CC[C@H](C(=O)N3OCC[C@H]3c3cc(F)cc(C#N)c3)CC2)nn1` [Compound 258, trans-3-fluoro-5-[(3S)-2-[4-[(1-methyltriazol-4-yl)methyl]cyclohexanecarbonyl]isoxazolidin-3-yl]benzonitrile], in that order: 862 nM and 71 nM.
The like results for `Cc1cn2ncc(C[C@H]3CC[C@H](C(=O)N4OCC[C@H]4c4ccc(F)cc4)CC3)cc2n1` [compound 324, trans-[4-[(3S)-2-[4-[(2-methylimidazo[1,2-b]pyridazin-7-yl)methyl]cyclohexanecarbonyl]isoxazolidin-3-yl]phenyl]] were, in that order, 35 nM and 34 nM.
Take `Cc1ccc([C@@H]2CCON2C(=O)C23CCC(Cc4ccc(C)c(C(N)=O)c4)(CC2)CC3)cn1` [compound 272, 2-methyl-5-[[4-[(3S)-3-(6-methyl-3-pyridyl)isoxazolidine-2-carbonyl]-1-bicyclo[2.2.2]octanyl]methyl]benzamide]: the values for the IC50 (in the experiment with U937 cells; in experiment [1]) were 206 nM and 29 nM, respectively.
For `Cc1ncc(C[C@H]2CC[C@H](C(=O)N3OCC[C@H]3c3cnc(C)c(F)c3)CC2)c(C(F)(F)F)n1` [compound 399, [(3S)-3-(5-fluoro-6-methylpyridin-3-yl)-1,2-oxazolidin-2-yl]-[4-[[2-methyl-4-(trifluoromethyl)pyrimidin-5-yl]methyl]cyclohexyl]methanone], the values for the IC50 (with U937 cells; in experiment [1]) were 274 nM and 85 nM, respectively.
The like results for `N#Cc1cc(F)cc([C@@H]2CCON2C(=O)[C@H]2CC[C@H](Cn3ncc4cc(C#N)ccc43)CC2)c1` [compound 53, trans-1-((4-((S)-3-(3-cyano-5-fluorophenyl)isoxazolidine-2-carbonyl)cyclohexyl)methyl)-1H-indazole-5-carbonitrile] were, in that order, 4 nM and 17 nM.
On to `Cc1cc(C[C@H]2CC[C@H](C(=O)N3OCCC3c3cnccn3)CC2)c(C)cn1` (stereo in doubt) [compound 356, trans-[4-(2,5-Dimethyl-pyridin-4-ylmethyl)-cyclohexyl]-((S)-3-pyrazin-2-yl-isoxazolidin-2-yl)-methanone], for which the figures for the IC50 (in the experiment on U937 cells; in experiment [1]) were 5 nM and 26 nM, respectively.
For `Cc1cn2ncc(C[C@H]3CC[C@H](C(=O)N4OCC[C@H]4c4csc(C)n4)CC3)cc2n1` [compound 371, trans-[4-(2-Methyl-imidazo[1,2-b]pyridazin-7-ylmethyl)-cyclohexyl]-[(S)-3-(2-methyl-thiazol-4-yl)-isoxazolidin-2-yl]-methanone], in that order: 147 nM and 65 nM.
The like results for `N#Cc1cnc2ccn(C[C@H]3CC[C@H](C(=O)N4OCC[C@H]4c4cnccn4)CC3)c2c1` [compound 134, trans-1-[[4-[(3S)-3-pyrazin-2-ylisoxazolidine-2-carbonyl]cyclohexyl]methyl]pyrrolo[3,2-b]pyridine-6-carbonitrile] were, in that order, 25 nM and 27 nM.
The like results for `Cc1cc([C@@H]2CCON2C(=O)[C@H]2CC[C@H](Cn3ncc4ccc(C#N)cc43)CC2)co1` [compound 43, trans-1-((4-((S)-3-(5-methylfuran-3-yl)isoxazolidine-2-carbonyl)cyclohexyl)methyl)-1H-indazole-6-carbonitrile] were, in that order, 1 nM and 18 nM.
For the compound `Cc1ncc(F)cc1C[C@H]1CC[C@H](C(=O)N2OCC[C@H]2c2ccc(F)cc2)CC1` [compound 179, trans-[4-[(5-fluoro-2-methyl-3-pyridyl)methyl]cyclohexyl]-[(3S)-3-(4-fluorophenyl)isoxazolidin-2-yl]methanone], the half-inhibitory concentration (IC50) amounted to 5 nM with U937 cells and 32 nM in experiment [1].
Regarding `Cc1cc(C)n(-c2cc(C[C@H]3CC[C@H](C(=O)N4OCC[C@H]4c4cc(F)cc(C#N)c4)CC3)ncn2)n1` [compound 124, trans-3-[(3S)-2-[4-[[6-(3,5-dimethylpyrazol-1-yl)pyrimidin-4-yl]methyl]cyclohexanecarbonyl]isoxazolidin-3-yl]-5-fluoro-benzonitrile], the IC50 with U937 cells was 68 nM; in experiment [1], 26 nM.
For `N#Cc1cc(F)cc([C@@H]2CCON2C(=O)[C@H]2CC[C@H](Cn3cc4cc(F)ccc4n3)CC2)c1` [compound 56, trans-3-fluoro-5-((S)-2-(4-((5-fluoro-2H-indazol-2-yl)methyl)cyclohexane-1-carbonyl)isoxazolidin-3-yl)benzonitrile], in that order: 109 nM and 42 nM.
For `Cc1cnc([C@@H]2CCON2C(=O)[C@H]2CC[C@H](Cc3cc(C)c4ncnn4c3)CC2)cn1` [compound 409, trans-[(3S)-3-(5-methylpyrazin-2-yl)-1,2-oxazolidin-2-yl]-[4-[(8-methyl-[1,2,4]triazolo[1,5-a]pyridin-6-yl)methyl]cyclohexyl]methanone], in that order: 66 nM and 46 nM.
